± gives the expanded uncertainty stated by the source.
Assay: molar heat capacity at constant pressure; xn = mol fraction of the nth substance listed
Settings: 101.3 kPa, Liquid, Small sample (50 mg) DSC

NCCN1CCNCC1 [N-(β-aminoethyl)piperazine)] + O
molar heat capacity at constant pressure [J/K/mol]
Settings	x1 = 0.1	x1 = 0.3	x1 = 0.5	x1 = 0.7	x1 = 0.9	x1 = 1
303.2 K	109.7 ± 4.5	157.3 ± 5.7	202.1 ± 7	242.8 ± 8.3	278.3 ± 9.4	289.7 ± 9.6
308.2 K	110.2 ± 4.5	158.5 ± 5.7	203.2 ± 7.1	244.3 ± 8.3	279.8 ± 9.4	290.8 ± 9.6
313.2 K	110.7 ± 4.6	160.3 ± 5.8	204.8 ± 7.1	246.3 ± 8.4	281.6 ± 9.5	293.1 ± 9.7
318.2 K	111 ± 4.6	162.1 ± 5.9	206.3 ± 7.2	248.1 ± 8.5	283.1 ± 9.5	294.7 ± 9.8
323.2 K	111.4 ± 4.7	164.3 ± 6	208.5 ± 7.2	250.6 ± 8.5	285.2 ± 9.6	296.9 ± 9.8
328.2 K	111.4 ± 4.7	165.7 ± 6	210 ± 7.3	252.5 ± 8.6	287 ± 9.7	298.5 ± 9.9
333.2 K	111.6 ± 4.8	167.3 ± 6.1	211.8 ± 7.3	253.5 ± 8.6	289 ± 9.7	300.7 ± 10
338.2 K	111.8 ± 4.8	168.7 ± 6.1	213.6 ± 7.4	254.5 ± 8.7	290.9 ± 9.8	302.2 ± 10
343.2 K	112.4 ± 4.8	170.1 ± 6.2	215.2 ± 7.5	255.9 ± 8.7	292 ± 9.8	303.3 ± 10
348.2 K	112.6 ± 4.9	171.4 ± 6.2	216.3 ± 7.5	256.2 ± 8.7	292.5 ± 9.8	303.6 ± 10
353.2 K	112.9 ± 4.9	173.1 ± 6.3	217.6 ± 7.5	257.3 ± 8.7	293.7 ± 9.9	304.6 ± 10

From the NIST ThermoML archive (doi:10.1016/j.jct.2016.08.006)
